# Test results as given in patent US20240287054A1, “COMPOUNDS THAT BIND NON-CANONICAL G-QUADRUPLEX STRUCTURES AND METHODS OF MAKING AND USING THE SAME” (The U.S.A., as Represented by the Secretary, Department of …, priority 2021, published 2024).
# Columns and labels:
# HIV HP-G4 = test: FIA binding test with HIV HP-G4 ((3+1) hybrid structure)
# Method: (§1) In this study, FIA was used for validating the bindings between certain bivalent and MYCN G4 oligos. To measure the binding affinity, a solution of each compound was prepared in triplicate in a 96 well-plate (Costar, black side clear bottom), resulting in a final concentration of 100 nM (5% final DMSO in the working solution). Unlabeled MYCN G4 DNA was folded based on the above-mentioned annealing method, then added into the well plate resulting in different concentrations by a seral dilution. The plate was incubated at room temperature for 30 min, followed by centrifuging at 500 rpm for 2 minutes. The fluorescence intensity was then quantitatively recorded by a Synergy Mx microplate reader (BioTek) at Ex 340 nm/Em 500 nm. The fluorescence intensities were then normalized, and the binding affinity was calculated by fitting the curve using one-site total model in GraphPad Prism 8.3.1 software.
# (§2) In addition to the DMS-footprinting study, the bivalent binding mode of compound B33 toward MYCN hairpin-G4 was also investigated by comparing HP-G4s with different folding types. Four reported HP-G4s with parallel structure (BCL2), (3+1) hybrid structure (HIV and PIM1-form1), and (2+2) chair-type structure (PIM1-form2) were examined by FIA binding test using compound B33 (FIGS. 41A, 41B, 42A, 42B, 43A, 43B, 44A, and 44B). […]
# MANGO II RNA G4 = test: SPR binding to MANGO II RNA G4; settings: duplex-containing RNA G4
# BCL2 HP-G4 = test: FIA binding test with BCL2 HP-G4 (parallel structure)
# Method: as §1, §2
# PIM1-form2 HP-G4 = test: FIA binding test with PIM1-form2 HP-G4 ((2+2) chair-type structure); settings: read-out: binding affinity, PIM1-form2 HP-G4
# Method: as §1, §2
# dsDNA = test: SPR binding to dsDNA; settings: up to 5 μM compound injection
# MYCN G4 DNA [1] = test: Microscale thermophoresis (MST) with 3′-Cy5 MYCN G4 DNA; design: species or system human; settings: 3′-Cy5 labeled MYCN G4, 1:1 binding model; read-out: binding affinity by MST
# Method: Microscale thermophoresis (MST). MST experiments were carried out on a Monolith NT.115 system (NanoTemper Technologies). The 3′-Cy5 MYCN G4 DNA solutions were prepared in 10 mM Tris (pH 7.5), 100 mM KCl, 0.005% T20, annealed (according to the above-mentioned method), and diluted to 100 nM (2×). The DMSO solutions of small molecules were prepared in the buffer with a series 1:1 dilution, resulting in 2× of designed concentrations (10% DMSO). Then, DNA samples were 1:1 (v/v) mixed with corresponding small molecule solutions, resulting in 50 nM DNA and 5% DMSO. Finally, MST signals were detected in triplicate capillaries, and the dissociation constant was determined by fitting the curve using a single-site model (MO.Affinity Analysis v2.3).
# MYCN G4 DNA [2] = test: SPR competitive binding assay on MYCN G4; design: species or system human
# Method: Based on this unexpected observation, and without being bound to a single theory, it currently is believed that the two compounds might bind to MYCN G4 on different sites. To investigate, a competitive assay on SPR was performed by injecting the compounds step-wise in a designated order or injecting a mixture (Brooks et al., Drug Discovery Today 2014, 19:1040-1044; Spurny et al., PNAS 112:E2543-2552). […] Next, TMPyP4, a classical stacking G4-binder (Seenisamy, JACS 2004, 126:8702-8709), was also tested together with MY-1. […] In addition, a CD melting assay was also performed using either MY-1 or a mixture of two hits (1 and MY-1).
# N-Myc protein = test: Western blot of N-Myc protein in NBEB cells; type: cell-based; settings: 48 h, Western blotting
# Method: To examine the effects of G4-binding compounds on NBEB cells, live-cell imaging was performed using an Incucyte interface (described below). NBEB (5K/well), cells were seeded into 96-well plates in triplicate, treated with compound MY-8 at various concentrations (0-45 μM), and cultured until control wells reached confluence. For RT-qPCR and western blotting, NBEB (300K) cells were treated with MY-8 in 6-well dish for 48 h. To examine the time-dependent decrease in MYCNOs expression, cells were treated with 22.5 μM and 45 μM MY-8 and analyzed at various times (0, 4, 24, 48, 72 and 96 h). To validate cell viability, a Trypan Blue exclusion test was performed following treatment at 48 h and 96 h post treatment and the proportion of live versus dead cells was calculated using a hemocytometer.
# Protein assay. Forty-eight hours post-MY-8 treatment in 6-well plates, single copy MYCN cells were lysed directly in the plate with Radioimmunoprecipitation assay buffer (Beyotime, China), pelleted, and chilled at −80° C. […] Total protein concentrations were determined using a Bradford Assay using the Bradford reagent (Beyotime, China). […] Chemiluminescent signal was detected using Clarity™ Western ECL Substrate (Bio-Rad, USA) or Supersignal™ West Femto Maximum Sensitivity Substrate (ThermoFisher Scientific, USA) with a ChemiDoc gel imaging system (Bio-Rad, USA).
smiles,measurement,setting,value
"COc1ccc(-c2noc(-c3ccc(NCCCNc4c5ccc(Cl)cc5nc5ccc(OC)cc45)nn3)n2)cc1 [B33, N^1-(6-chloro-2-methoxyacridin-9-yl)-N^3-(6-(3-(4-methoxyphenyl)-1,2,4-oxadiazol-5-yl)pyridazin-3-yl)propane-1,3-diamine]",Kd,HIV HP-G4,151 ± 26 nM
same,binding to MANGO II RNA G4 by SPR,MANGO II RNA G4,weak binding
same,fold weaker than MYCN HP-G4,BCL2 HP-G4; BCL2 HP-G4 vs MYCN HP-G4,~4 times
same,Kd,BCL2 HP-G4; FIA,258 ± 39 nM
same,Kd,PIM1-form2 HP-G4,1100 ± 400 nM
same,binding to dsDNA on SPR,dsDNA,did not show any binding to dsDNA
"COc1ccc(-c2noc(-c3ccc(NCCCN4CCCC4)nn3)n2)cc1 [MY-1, 6-(3-(4-methoxyphenyl)-1,2,4-oxadiazol-5-yl)-N-(3-(pyrrolidin-1-yl)propyl)pyridazin-3-amine]",Kd,MYCN G4 DNA [1],8100 ± 1700 nM
same,binding level of MY-1 after injection of 1,"MYCN G4 DNA [2]; 100 μM of 1 followed by 100 μM of MY-1, also 500 μM of 1",not significantly changed
same,SPR binding signal on addition of MY-1 to TMPyP4 solution,MYCN G4 DNA [2]; MY-1 100 μM and 250 μM in TMPyP4 solution,increase of SPR binding signals
"COc1ccc(-c2noc(-c3ccc(NCCCN4CCCCCC4)nn3)n2)cc1 [MY-8, N-(3-(azepan-1-yl)propyl)-6-(3-(4-methoxyphenyl)-1,2,4-oxadiazol-5-yl)pyridazin-3-amine]",levels of N-Myc protein,N-Myc protein,decreased upon treatment with MY-8 in a dose-dependent fashion
